The test system of one test is wheat powdery mildew. As to the kind of experiment: Protectant activity in vivo (whole plant), wheat powdery mildew. As for the experimental part:
(§1) The method is as followed: The whole plant is used in this test. The compound is dissolved in a proper solvent to get mother solution. The proper solvent is selected from acetone, methanol, DMF and so on according to their dissolving capability to the sample. […] The testing solution is sprayed to the host plant by a special plant sprayer. The plant is inoculated with fungus after 24 hours. According to the infecting characteristic of fungus, the plant is stored in a humidity chamber and then transferred into greenhouse after infection is finished. And the other plants are placed in greenhouse directly. The activity of compound is obtained by eyeballing after 7 days in common.

The next test has as its system corn rust. As to the kind of experiment: Protectant activity in vivo (whole plant), corn rust. The following applies: for pest or weed control at 400 µg/mL / pest or weed control at 100 µg/mL / pest or weed control at 25 µg/mL: Zea mays, 168 h, read-out: protectant activity against corn rust. As for the experimental part:
as §1

The test system of test [1] is Green peach aphids (Myzus Persicae Sulzer). In words: Activity against green peach aphid (airbrush foliar spray). It counts as in vivo. The following applies: death rate after 48 h; for pest or weed control at 600 µg/mL / pest or weed control at 10 µg/mL / pest or weed control at 100 µg/mL: Myzus persicae, foliar, 48 h; for pest or weed control at 600 µg/mL / pest or weed control at 100 µg/mL: read-out: Insecticidal activity against peach aphid (control); for pest or weed control at 10 µg/mL: read-out: Insecticidal activity against peach aphid. As for the experimental part: (§2) Compounds were dissolved in mixed solvent (acetone:methanol=1:1), and diluted to required concentration with water containing 0.1% of tween 80.
(§3) Diamond back moth, armyworm, Green Peach Aphid and carmine spider mite were used as targets and the method of spraying by airbrush was used for determination of insecticidal biassays.
Method: Filter papers were put in culture dishes (Diameter=6 cm), and water was dripped on filter papers for preserving moisture. Green peach aphids (Myzus Persicae Sulzer) were maintained on cabbage. Leaves (Diameter=3 cm) of approximately 15-30 aphids were put in the culture dishes. Bioactivity tests were used the method of Airbrush Foliar Spray, pressure=10 psi (0.7 kg/cm2), spray volume=0.5 mL. The studies were conducted at three constant temperatures 25±1 C. in incubator cabinets with 60±5% RH. Survey the survival aphids after 48 h and calculate the death rates.

A further test concerns diamond back moth. As to the kind of experiment: Insecticidal activity against diamond back moth (airbrush spray). The following applies: 600 mg/L, mortality after 72 h; for pest or weed control at 600 µg/mL: read-out: control of the second instar larvae of diamond back moth. It counts as in vivo. As for the experimental part:
as §2, §3
The method of spraying by airbrush: The cabbage leaves were made into plates of 2 cm diameter by use of punch. A test solution (0.5 ml) was sprayed by airbrush at the pressure of 0.7 kg/cm^2 to both sides of every plate. 10 Second instar larvae were put into the petri-dishes after the leaf disc air-dried and 3 replicates were set for each treatment. Then the insects were maintained in observation room (25° C., 60˜70% R.H.). Scores were conducted and mortalities were calculated after 72 h.

Another test deals with cucumber gray mold. As to the kind of experiment: Fungicidal activity in vitro (96-well, High Through Put), cucumber gray mold. The following applies: 25 mg/L, 24 hours, read-out: inhibition rate against cucumber gray mold. The test is classed as cell-based.
A further test has as its system armyworm. As to the kind of experiment: Insecticidal activity against armyworm (airbrush spray). The test is classed as in vivo. The following applies: 600 mg/L, second instar larvae, mortality after 72 h. As for the experimental part: as §2, §3
The method of spraying by airbrush: The corn leaves were made into plates of 2 cm diameter by use of punch. A test solution (0.5 ml) was sprayed by airbrush at the pressure of 0.7 kg/cm^2 to both sides of every plate. 10 Second instar larvae were put into the petri-dishes after the leaf disc air-dried and 3 replicates were set for each treatment. Then the insects were maintained in observation room (25° C., 60˜70% R.H.). Scores were conducted and mortalities were calculated after 72 h.

For the next test, the system named is carmine spider mite. As to the kind of experiment: Acaricidal activity against carmine spider mite (airbrush spray). It counts as in vivo. The settings on record: 100 mg/L, adults, mortality after 72 hrs; for pest or weed control at 100 µg/mL: Tetranychus cinnabarinus. As for the experimental part: as §2, §3
Method: Broadbean shoots with two true leaves in pot were taken, the healthy adults of carmine spider mite were inoculated to the leaves. The adults were counted and then sprayed with airbrush at the pressure of 0.7 kg/cm^2 and at dose of 0.5 ml. 3 replicates were set for each treatment. And then they were maintained in standard observation room. Scores were conducted and mortalities were calculated after 72 hrs.

For the next test, the system named is cucumber downy mildew. As to the kind of experiment: Protectant activity in vivo (whole plant), cucumber downy mildew. As for the experimental part: as §1
Another test deals with rice blast. In words: microbe, parasite or virus in culture. It counts as cell-based. The settings on record: for inhibition rate against rice blast: in vitro, 24 hours.
Where [2] appears, read: Triticum aestivum, 168 h, 400 mg/L, read-out: protectant activity against wheat powdery mildew.
The mark [3] stands for this setting: Cucumis sativus, 168 h, 400 mg/L, read-out: protectant activity against cucumber downy mildew.
[4] abbreviates: Pyricularia oryzae, 24 h, read-out: inhibition rate against rice blast.
The mark [5] stands for this setting: Triticum aestivum, 168 h, 25 mg/L, read-out: protectant activity against wheat powdery mildew.
[6] abbreviates: Triticum aestivum, 168 h, 100 mg/L, read-out: protectant activity against wheat powdery mildew.
[7] abbreviates: Cucumis sativus, 168 h, 100 mg/L, read-out: protectant activity against cucumber downy mildew.

Broadly, the inhibition is the drop in the measured response relative to a control, in per cent.

For `c1ccc2c(NCCc3ccc4c(c3)OCO4)ncnc2c1` [ACTA-1], the pest or weed control at 400 µg/mL in the test on wheat powdery mildew (setting [2]) and in the test on corn rust (400 mg/L) was 0% throughout. Besides, the pest or weed control at 600 µg/mL in [1] (600 mg/L) was determined as 0%; in the test with diamond back moth, 40%; in the test with armyworm it was 40%. In addition, the inhibition at 25 µg/mL in the test with cucumber gray mold was found to be 50%. Further, in the test with carmine spider mite, the pest or weed control at 100 µg/mL was 0%.

Turning to `COc1cc(CNc2ncnc(C)c2Cl)ccc1O` [CK3], the pest or weed control at 400 µg/mL in the test with wheat powdery mildew (setting [2]), in the test with cucumber downy mildew (setting [3]) and in the test on corn rust (400 mg/L) was 0% in each case. In addition, the pest or weed control at 600 µg/mL (in test [1] (600 mg/L); in the test with diamond back moth; with armyworm) was 0% each time. Moreover, the inhibition at 25 µg/mL with cucumber gray mold is 0%. Besides, the pest or weed control at 100 µg/mL in the test with carmine spider mite turned out to be 0%.

Take `Cc1ncnc(NCCc2ccc(O)cc2)c1Cl` [CK4]: the pest or weed control at 400 µg/mL in the test on wheat powdery mildew (setting [2]), in the test on cucumber downy mildew (setting [3]) and in the test with corn rust (400 mg/L) was 0% in each case. Besides, the inhibition at 25 µg/mL with rice blast (setting [4]) and in the test with cucumber gray mold was 0% in each case. Also, the pest or weed control at 600 µg/mL (in test [1] (600 mg/L); with diamond back moth; in the test with armyworm) was 0% each time. This compound had a pest or weed control at 100 µg/mL in the test on carmine spider mite of 0%.

For `COc1ccc(CCNc2ncnc(C(F)(F)F)c2Cl)cc1OC` [CK7], the pest or weed control at 25 µg/mL with wheat powdery mildew (setting [5]) stood at 0%. Further, the pest or weed control at 100 µg/mL in the test with wheat powdery mildew (setting [6]) is 30%; in the test with corn rust (100 mg/L), 0%; in test [1] (100 mg/L) it was 37%. The pest or weed control at 400 µg/mL worked out at 80% in the test with wheat powdery mildew (setting [2]) and 70% in the test on corn rust (400 mg/L). Further, the inhibition at 25 µg/mL in the test on rice blast (setting [4]) and with cucumber gray mold was 0% in each case. Besides, the pest or weed control at 10 µg/mL in test [1] (10 mg/L) turned out to be 0%. Moreover, the figures for the pest or weed control at 600 µg/mL (in [1] (600 mg/L); in the test on armyworm) were 66% and 0%, respectively.

Take `COc1ccc(CCNc2ncnc(C)c2Cl)cc1OC` [CK8]: in the test with wheat powdery mildew (Triticum aestivum, 168 h, 6.25 mg/L, read-out: protectant activity against wheat powdery mildew), the pest or weed control at 6.25 µg/mL worked out at 0%. In addition, the pest or weed control at 25 µg/mL was 10% in the test with wheat powdery mildew (setting [5]) and 0% in the test on cucumber downy mildew (Cucumis sativus, 168 h, 25 mg/L, read-out: protectant activity against cucumber downy mildew). Besides, the pest or weed control at 100 µg/mL with wheat powdery mildew (setting [6]) worked out at 80%; in the test with cucumber downy mildew (setting [7]), 45%; in the test with corn rust (100 mg/L), 0%. The pest or weed control at 400 µg/mL in the test on wheat powdery mildew (setting [2]) worked out at 100%; in the test with cucumber downy mildew (setting [3]) it was 98%; with corn rust (400 mg/L), 100%. Moreover, the inhibition at 25 µg/mL with rice blast (setting [4]) worked out at 50%; with cucumber gray mold, 0%. Moreover, the pest or weed control at 50 µg/mL in the test with cucumber downy mildew (Cucumis sativus, 168 h, 50 mg/L, read-out: protectant activity against cucumber downy mildew) stood at 20%. Besides, the pest or weed control at 600 µg/mL (in test [1] (600 mg/L); with diamond back moth; in the test on armyworm) was 0% each time.

For `Cc1c(Cl)c(NCCc2ccc3c(c2)OCO3)nc[n+]1CC(=O)c1ccc(Cl)cc1` [CK10], the pest or weed control at 400 µg/mL with wheat powdery mildew (setting [2]), in the test with cucumber downy mildew (setting [3]) and in the test on corn rust (400 mg/L) was 0% throughout. For the same compound, the inhibition at 25 µg/mL in the test with rice blast (setting [4]) and with cucumber gray mold was 0% throughout. Besides, the pest or weed control at 600 µg/mL (in test [1] (600 mg/L); in the test with diamond back moth; with armyworm) was 0% throughout. In the test with carmine spider mite, this compound showed a pest or weed control at 100 µg/mL of 0%.

For the compound `ClCc1ncnc(NCCc2ccc3c(c2)OCO3)c1Cl` [CK11], the pest or weed control at 400 µg/mL was 0% with wheat powdery mildew (setting [2]), 30% with cucumber downy mildew (setting [3]) and 85% in the test on corn rust (400 mg/L). Further, the pest or weed control at 100 µg/mL in the test with cucumber downy mildew (setting [7]) came to 0%; with corn rust (100 mg/L), 35%; in test [1] (100 mg/L) it was 0%; in the test on carmine spider mite, 25%. In the test on corn rust (25 mg/L), the pest or weed control at 25 µg/mL is 0%. Moreover, the pest or weed control at 10 µg/mL in test [1] (10 mg/L) came to 0%. In addition, the pest or weed control at 600 µg/mL is 88% in [1] (600 mg/L), 0% in the test on diamond back moth and 0% in the test with armyworm. For the same compound, the inhibition at 25 µg/mL in the test with cucumber gray mold stood at 50%.

On to `FC(F)c1ncnc(NCCc2ccc3c(c2)OCO3)c1Cl` [Compound 18], for which the “protectant activity against wheat powdery mildew” value in the test with wheat powdery mildew (6.25 mg/L), in the test on wheat powdery mildew (25 mg/L), in the test on wheat powdery mildew (100 mg/L) and in the test on wheat powdery mildew (400 mg/L) was 100% throughout. For the same compound, the “inhibition rate against rice blast” value is on record as 80% with rice blast (0.9 mg/L), 80% in the test with rice blast (2.8 mg/L), 100% with rice blast (8.3 mg/L) and 100% in the test on rice blast (25 mg/L). Also, the “protectant activity against cucumber downy mildew” value in the test with cucumber downy mildew (12.5 mg/L) stood at 80%; in the test with cucumber downy mildew (25 mg/L), 100%; with cucumber downy mildew (50 mg/L) it was 100%; in the test with cucumber downy mildew (100 mg/L), 100%; with cucumber downy mildew (400 mg/L), 100%. Moreover, the entries for the “protectant activity against corn rust” value in the test with corn rust (25 mg/L), with corn rust (100 mg/L) and in the test on corn rust (400 mg/L) were 98%, 100% and 100%, respectively. Further, in test [1] (10 mg/L), the “Insecticidal activity against peach aphid” value was 68%. In addition, the “Insecticidal activity against peach aphid (control)” value in test [1] (100 mg/L) and in test [1] (600 mg/L) was 100% each time. Moreover, the “control of the second instar larvae of diamond back moth” value in the test with diamond back moth is given as 100%. Also, the “control of the armyworm” value in the test on armyworm turned out to be 100%. In addition, the “control against carmine spider mite” value with carmine spider mite worked out at 90%.

`Cc1ncnc(NC(C)c2ccc3c(c2)OC(F)(F)O3)c1Cl` (centres unmarked) [PC-1]: the pest or weed control at 25 µg/mL in the test on wheat powdery mildew (setting [5]) and in the test with corn rust (25 mg/L) was 0% in each case. Moreover, the pest or weed control at 100 µg/mL was determined as 80% with wheat powdery mildew (setting [6]), 20% in the test with corn rust (100 mg/L), 0% in test [1] (100 mg/L) and 51% with carmine spider mite. Further, the pest or weed control at 400 µg/mL stood at 100% with wheat powdery mildew (setting [2]) and 70% with corn rust (400 mg/L). Also, in the test on rice blast (setting [4]), the inhibition at 8.3 µg/mL amounted to 0%. Moreover, the pest or weed control at 600 µg/mL turned out to be 52% in [1] (600 mg/L), 0% in the test on diamond back moth and 0% in the test with armyworm. The inhibition at 25 µg/mL with cucumber gray mold stood at 50%.

The values above are taken from patent US9447081B2, “Substituted pyrimidines as pharmaceuticals and insecticides” (SHENYANG SINOCHEM AGROCHEMICALS R&D CO., LTD., priority 2012, dated 2016).
